Measurements: patent publication US20080058356A1, “2,6 Bisheteroaryl-4-Aminopyrimidines as Adenosine Receptor Antagonists” (Neurocrine Biosciences, Inc., priority 2003, published 2008)

SMILES | melting point [°C]
Nc1cc(-n2cccn2)nc(-c2ccc(Cl)o2)n1 [Example 50, 2-(5-Chloro-2-furyl)-6-(1H-pyrazol-1-yl)pyrimidin-4-amine] | 209.9 to 211
CCC(=O)Nc1cc(-n2cccn2)nc(-c2ccc(Cl)o2)n1 [Example 51, N-[2-(5-Chloro-2-furyl)-6-(1H-pyrazol-1-yl)pyrimidin-4-yl]propanamide] | 189.3 to 190.1
CCC(=O)Nc1cc(-c2cccnc2)nc(-c2ccco2)n1 [Example 54, N-[2-(2-Furyl)-6-pyridin-3-ylpyrimidin-4-yl]propanamide] | 251.8 to 253.2
Nc1cc(-c2cccnc2)nc(-c2ccco2)n1 [Example 55, 2-(2-Furyl)-6-pyridin-3-ylpyrimidin-4-amine] | 232.7 to 233.1
c1coc(-c2nc(NCC3CC3)cc(-n3cccn3)n2)c1 [Example 119, N-(Cyclopropylmethyl)-2-(2-furyl)-6-(1H-pyrazol-1-yl)pyrimidin-4-amine] | 100.9 to 101.7
NCCNc1cc(-n2cccn2)nc(-c2ccco2)n1 [Example 122, N-[2-(2-Furyl)-6-(1H-pyrazol-1-yl)pyrimidin-4-yl]ethane-1,2-diamine] | 104.1 to 105.1
c1ccc(CCNc2cc(-n3cccn3)nc(-c3ccco3)n2)nc1 [Example 125, 2-(2-Furyl)-6-(1H-pyrazol-1-yl)-N-[2-(pyridin-2-yl)ethyl]pyrimidin-4-amine] | 110.2 to 110.9
OCCCNc1cc(-n2cccn2)nc(-c2cccs2)n1 [Example 131, 3-{[6-(1H-Pyrazol-1-yl)-2-(2-thienyl)pyrimidin-4-yl]amino}propan-1-ol] | 129.9 to 130.8
NCCNc1cc(-n2cccn2)nc(-c2cccs2)n1 [Example 132, N-(2-Aminoethyl)-N-[6-(1H-pyrazol-1-yl)-2-(2-thienyl)pyrimidin-4-yl]amine] | 146.6 to 147.1

Second part, the compound after the results:

melting point [°C] | SMILES
90 to 91.9 | c1ccc([C@H]2C[C@@H]2Nc2cc(-c3ccco3)nc(-c3nccs3)n2)cc1 (relative stereo) [Example 198, 6-(2-Furyl)-N-[(1S*,2R*)-2-phenylcyclopropyl]-2-(1,3-thiazol-2-yl)pyrimidin-4-amine]
116.2 to 117.3 | COc1ccc(CCNc2cc(-n3cccn3)nc(-c3cccs3)n2)cc1OC [Example 134, N-[2-(3,4-Dimethoxyphenyl)ethyl]-6-(1H-pyrazol-1-yl)-2-(2-thienyl)pyrimidin-4-amine]
83 to 83.8 | COc1ccc(CCNc2cc(-c3ccco3)nc(-c3nccs3)n2)cc1OC [Example 196, N-[2-(3,4-Dimethoxyphenyl)ethyl]-6-(2-furyl)-2-(1,3-thiazol-2-yl)pyrimidin-4-amine]
147.8 to 148.5 | COc1ccc(COC(=O)Nc2cc(-n3cccn3)nc(-c3ccco3)n2)cc1OC [Example 202, 3,4-Dimethoxybenzyl [2-(2-furyl)-6-(1H-pyrazol-1-yl)pyrimidin-4-yl]carbamate]
